{"source": "patent US20250304893A1", "about": "“PERFUSABLE 3D TUBULE-ON-CHIP MODEL DERIVED FROM KIDNEY ORGANOIDS WITH IMPROVED DRUG UPTAKE” (President and Fellows of Harvard College, priority 2022, published 2025)", "key": {"OPTECs": {"test_system": "OPTECs", "experiment": "2D OPTEC culture with media supplements to minimize epithelial to mesenchymal transition", "assay_type": "cell-based, human", "experimental": "Organoid-derived PTECs (OPTECs) were cultured in 24-well plates pretreated with 1:20 laminin-511 (Biolamina LN511) in DPBS with calcium and magnesium. For passages 0 and 1, the OPTECs were cultured in REGM media supplemented with 1% FBS. Upon reaching passage 2, the OPTECs were cultured using LPTEC media supplemented with 1% FBS and 10 μM SB431542 (ab120163). Each passage was performed when the cells reached ˜90% confluency by first washing the cells with DPBS without calcium and magnesium, treating with 0.05% trypsin/EDTA for 3-5 min (or until cells lifted off the plate), followed by quenching with culture medium, centrifuging at 240 ref for 4 min, resuspending in culture media, and seeding each laminin pre-treated well at a density of 70,000-100,000 cells/cm^2.\nNext, the effects of two different media were tested: (1) modified DMEM F-12 medium described by previous work^14 (LPTEC) and (2) commercially available renal epithelial growth medium (REGM). […] To further promote cell attachment, growth, and proliferation, 1% FBS was added to the media. To minimize epithelial to mesenchymal transition (EMT), the effects of transforming growth factor (TGF-β), bone morphogenic protein 7 (BMP7) and TGF-β/activin/NODAL pathway (SB431542) inhibitors were explored (FIG. 6k-l)^26. […]"}, "OPTEC tubules [1]": {"test_system": "OPTEC tubules", "conditions": "48 h", "experimental": "Before beginning these experiments, three important steps were carried out: (1) all reservoirs were supplied with fresh media, (2) all outlet tubing was cut to the same length, and (3) all chips were subjected to one-way rather than recirculating back to the media reservoir. After each chip within the MCDs was subjected to one-way flow (2 μL/min) for 4 h, a baseline sample of the perfusate was collected from the luminal outlet tubing for 3 h into a 1.6 mL Eppendorf tube. Next, cisplatin (50 μM) or aristolochic acid (25 μM) was delivered basolaterally on chip by manually pipetting each drug solution to the appropriate basal media reservoir. Next, all tubing was reconnected to the peristaltic pump and allowed to flow at a flow rate of 2 μL/min. After 48 h, another sample of the perfusate was collected from the luminal outlet tubing for 3 h into a 1.6 mL Eppendorf tube. All collected luminal media samples were spun down at 5000 rcf for 5 min to remove cellular debris. Each supernatant was transferred to a fresh tube and stored at −20° C. to run the LDH assay. For samples pre-treated with inhibitors, cimetidine (1 mM) or probenecid (2 mM) was first added to the basal reservoir, delivered basolaterally, and allowed to diffuse through the gelatin-fibrin matrix during recirculating flow for 1 h.\nLDH assays were performed according to the manufacturer's instructions (Promega, CytoTox Non-Radioactive Cytotoxicity Assay, G1780). The frozen media samples were thawed at room temperature and used after this first thaw cycle. Next, 50 μL of each media was transferred to a 96-well plate and incubated at 37° C. for 30 min with 50 μL of CytoTox 96 reagent. 50 μL of stop solution was then added, all bubbles were removed using a syringe, and their absorbance was recorded at 490 nm using a plate reader.\n(§1) Normalized LDH release was calculated using the following equation: […]\n(§2) LDH48 was the recorded absorbance of the 48-h perfusate sample and LDHbaseline was the recorded absorbance of baseline perfusate sample before drug exposure. Normalized LDH release was calculated for each of the tubules individually and plotted into sample groups comparing OPTEC-on-chip and PTEC-TERT1-on-chip models subjected to each drug ±inhibitor.\nTo assess nephrotoxicity, luminal perfusate was collected and LDH analyses were performed. LDH is a cytosolic enzyme found in nearly all cell types, including PTECs, that is released upon cellular damage^29. […] Due to differences in their baseline LDH release among different tubules across the two cell types, a normalized LDH release (LDH release at 48 h relative to baseline release) was determined for each sample, i.e., OPTEC and PTEC-TERT1 tubules without drug, with drug, and with drug and corresponding inhibitors for OCT2 and OAT1/3 transporters, respectively."}, "PTEC-TERT1 tubules": {"test_system": "PTEC-TERT1 tubules", "experiment": "Nephrotoxicity testing: normalized LDH release in luminal perfusate of PTEC-TERT1-on-chip tubules (control chips)", "assay_type": "cell-based, human", "experimental": "Before beginning these experiments, three important steps were carried out: (1) all reservoirs were supplied with fresh media, (2) all outlet tubing was cut to the same length, and (3) all chips were subjected to one-way rather than recirculating back to the media reservoir. After each chip within the MCDs was subjected to one-way flow (2 μL/min) for 4 h, a baseline sample of the perfusate was collected from the luminal outlet tubing for 3 h into a 1.6 mL Eppendorf tube. Next, cisplatin (50 μM) or aristolochic acid (25 μM) was delivered basolaterally on chip by manually pipetting each drug solution to the appropriate basal media reservoir. […]\nLDH assays were performed according to the manufacturer's instructions (Promega, CytoTox Non-Radioactive Cytotoxicity Assay, G1780). […] 50 μL of stop solution was then added, all bubbles were removed using a syringe, and their absorbance was recorded at 490 nm using a plate reader.\nas §1\nas §2, with “±inhibitor. […]” for “±inhibitor.”"}, "OPTEC tubules [2]": {"test_system": "OPTEC tubules", "experiment": "Diffusional permeability measurement of FITC-inulin through tubules on chip", "assay_type": "cell-based, human", "conditions": "4.5 kDa FITC-inulin 100 μg/mL perfused through lumen, OPTEC tubules vs PTEC-TERT1 tubules (control)", "experimental": "The barrier function of the 3D OPTECs- and PTEC-TERT1 s based models was assessed by measuring the diffusional permeability of 4.5 kDa inulin. This compound was selected because is neither up taken up nor secreted by PTECs in-vivo. FITC-labeled inulin (Sigma product F3272) was dissolved in prewarmed LPTEC media at a concentration of 100 μg/mL and perfused through the luminal channel at a rate of 20 μL/min for 3 min and 1.5 μL/min thereafter for 15 min. The diffusion of FITC-inulin was calculated by: […]\nWhere Pd is the diffusional permeability coefficient, I1 is the average intensity at the initial time point, I2 is the average intensity at time t, Ib is the background intensity taken before perfusion of FITC-inulin, and dis the diameter of the channel^13."}, "UB cells": {"test_system": "UB cells", "experiment": "FITC-inulin retention in perfused epithelialized UB channels on chip (barrier function)", "assay_type": "cell-based, human", "conditions": "perfused epithelialized UB channels vs empty channels, after 1 hour", "experimental": "To fabricate this chip, first the various chip components were assembled (FIG. 17A) and ECM was added to an inner reservoir around a pin and crosslinked. The pin was then removed forming an open channel that can be seeded with cells (FIG. 17B). This design allowed for easy access to the ECM and medium bathing the ECM. After seeding, cells formed confluent monolayers along channel walls within 3-7 days (FIG. 16C,D,E). Perfused epithelialized channels retained FITC-inulin after 1 hour relative to empty channels, indicating barrier function (FIG. 16F,G)."}}, "data": [{"compound": "NC(=O)c1ccc(-c2nc(-c3ccc4c(c3)OCO4)c(-c3ccccn3)[nH]2)cc1", "note": "[SB431542]", "values": [{"measurement": "cell morphology during prolonged cell culture", "setting": "OPTECs; 10 μM, OPTECs 2D culture", "value": "cuboidal cell morphology"}, {"measurement": "EMT marker expression in 2D OPTEC monolayers", "setting": "OPTECs; SB431542 as media supplement, 2D culture", "value": "down regulation of EMT markers"}]}, {"compound": "COc1cccc2c1cc([N+](=O)[O-])c1c(C(=O)O)cc3c(c12)OCO3", "note": "[aristolochic acid]", "values": [{"measurement": "LDH release compared to PTEC-TERT1 tubules", "setting": "OPTEC tubules [1]; 25 μM aristolochic acid delivered basolaterally, OPTEC tubules on chip", "value": "significantly higher"}]}, {"compound": "CN/C(=N/CCSCc1nc[nH]c1C)NC#N", "note": "[cimetidine]", "values": [{"measurement": "decrease of normalized LDH release upon OCT2 inhibitor (factor)", "setting": "OPTEC tubules [1]; cimetidine 1 mM pre-treatment, 50 μM cisplatin, OPTEC tubules", "value": "> 2"}, {"measurement": "effect of OCT2 inhibition on normalized LDH release", "setting": "PTEC-TERT1 tubules; cimetidine 1 mM, same cisplatin dose (50 μM)", "value": "far less effect"}]}, {"compound": "N.N.[Cl][Pt][Cl]", "note": "[cisplatin]", "values": [{"measurement": "normalized LDH response compared to PTEC-TERT1 s", "setting": "OPTEC tubules [1]; 50 μM cisplatin delivered basolaterally, OPTEC tubules on chip", "value": "significantly higher"}]}, {"compound": "CCCN(CCC)S(=O)(=O)c1ccc(C(=O)O)cc1", "note": "[probenecid]", "values": [{"measurement": "normalized LDH release upon OAT1/3 inhibitor", "setting": "OPTEC tubules [1]; probenecid 2 mM pre-treatment, 25 μM aristolochic acid, OPTEC tubules", "value": "substantially reduced"}, {"measurement": "effect of OAT1/3 inhibition on normalized LDH release", "setting": "PTEC-TERT1 tubules; probenecid 2 mM, same aristolochic acid dose (25 μM)", "value": "negligible effect"}]}, {"compound": "FITC-inulin", "values": [{"measurement": "diffusional permeability", "setting": "OPTEC tubules [2]", "value": "comparable to that observed for PTEC-TERT1 tubules"}, {"measurement": "retention of FITC-inulin in channel (barrier function)", "setting": "UB cells", "value": "retained"}]}]}
